In PubChem BioAssay (NCI):
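In this assay, cells in 96-well plates receive the compound at five concentrations for 48 hours. Endpoints are linearly interpolated between the surrounding concentrations. TGI is the concentration that stops growth completely.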

Columns and labels:
Test in all cases: growth of human tumour cells (NCI), 48 h
HT29 colon = tested on: HT29 colon
TK-10 renal = tested on: TK-10 renal
BT-549 breast = tested on: BT-549 breast
ACHN renal = tested on: ACHN renal
EKVX NSCLC = tested on: EKVX NSCLC
M14 melanoma = tested on: M14 melanoma
UACC-62 melanoma = tested on: UACC-62 melanoma
COLO 205 colon = tested on: COLO 205 colon
HL-60(TB) leukemia = tested on: HL-60(TB) leukemia
SK-MEL-5 melanoma = tested on: SK-MEL-5 melanoma
NCI-H23 lung = tested on: NCI-H23 lung
SK-MEL-2 melanoma = tested on: SK-MEL-2 melanoma

Compound | TGI (HT29 colon) [µM] | TGI (TK-10 renal) [µM] | TGI (BT-549 breast) [µM] | TGI (ACHN renal) [µM] | TGI (EKVX NSCLC) [µM] | TGI (M14 melanoma) [µM] | TGI (UACC-62 melanoma) [µM] | TGI (COLO 205 colon) [µM] | TGI (HL-60(TB) leukemia) [µM] | TGI (SK-MEL-5 melanoma) [µM] | TGI (NCI-H23 lung) [µM] | TGI (SK-MEL-2 melanoma) [µM]
C/C(=N\NC(=O)/C(C#N)=C\c1ccc(N(CCC#N)CCC#N)cc1)c1ccccc1 | > 10 | > 10 | > 10 | > 10 | > 10 | > 10 | > 10 | > 10 | > 10 | > 10 | > 10 | –
C[C@]12CC(c3ccccc3O1)C(C#N)C(=O)N2 (stereo partly drawn) | > 100 | – | > 100 | > 100 | > 100 | > 100 | > 100 | > 100 | > 100 | > 100 | > 100 | > 100
Cc1cnc2[nH]c(-c3ccc(F)cc3)cc(=O)c2c1 | > 100 | > 100 | > 100 | > 100 | > 100 | > 100 | > 100 | > 52.7 | 20.4 | > 100 | > 100 | > 82.1
Cc1ccc(S(=O)(=O)[N-]C2C(=O)c3ccccc3C(=O)C2[n+]2cccc(C(N)=O)c2)cc1 (stereo not drawn) | > 100 | > 100 | > 100 | > 100 | > 100 | > 100 | > 100 | 59.4 | > 100 | > 100 | > 100 | > 100
Cc1cc(S(=O)(=O)Nc2nc(N)nc(N3CCOCC3)n2)c(SCC(=O)O)cc1Cl | > 10 | > 10 | > 10 | > 10 | > 10 | > 10 | – | > 10 | > 10 | > 10 | > 10 | > 10
CC1(C)CCCCCCCCCC(C)(CCCO)C1=O (stereo not drawn) | 26.6 | – | 31.6 | 31.7 | 36.7 | 27.4 | 32.4 | 30.1 | 45 | 31.3 | 29.1 | 28.9
CC(=O)O[C@H]1C(=O)[C@@]2(C)[C@H]([C@H](OC(=O)c3ccc([N+](=O)[O-])cc3)[C@]3(O)C[C@H](OC(=O)[C@H](O)[C@@H](NC(=O)c4ccccc4)c4ccccc4)C(C)=C1C3(C)C)[C@]1(OC(C)=O)CO[C@@H]1C[C@@H]2O | > 25 | > 25 | > 25 | > 25 | > 25 | > 25 | > 25 | > 25 | > 25 | > 25 | > 25 | –
COc1ccc2nc3cc([N+](=O)[O-])ccc3c(NNc3ccc(Cl)cc3)c2c1 | 43.5 | 5.16 | > 92.1 | > 82.2 | 99 | > 92.5 | > 65.9 | 60.8 | > 73.8 | 36.2 | > 100 | 59.4
CCOC(=O)c1cc(C2CCN(CC(C)CC)C2=S)c(C(=O)/C=C(/C)N)[nH]1 (stereo not drawn) | > 50 | > 50 | > 50 | > 50 | > 50 | > 50 | > 50 | > 50 | > 50 | > 50 | > 50 | > 50
